# Reference: US20240415914A1, “Water Dispersible Cannabinoid Compositions” (priority 2021, published 2024)
# Assay: Stability of cannabinoid and Vitamin E components of Beverage 1 (AB White) stored at 8° C. and 21-25° C., LCMSMS over 570 days
# Assay type: physicochemical
# Conditions: for Stability in AB White, 8° C. (content by LCMSMS): beverage stored at 8° C.; for Stability in AB White, 21-25° C. (content by LCMSMS): beverage stored at 21-25° C.
# Method: The LCMSMS was calibrated for 0-1000 ng/ml cannabinoids with the same resin material used in the preparation of the concentrates. At each time period, 100 ml of beverage was diluted with 10 ml of methanol and injected into the LCMSMS for analysis.
structure (smiles),measurement,setting,value
"CCCCCc1cc2c(c(O)c1C(=O)O)[C@@H]1C=C(C)CC[C@H]1C(C)(C)O2 [D9 THCA, delta-9-tetrahydrocannabinolic acid]","Stability in AB White, 8° C. (content by LCMSMS)",day 0,0.950 µg/mL
same,"Stability in AB White, 8° C. (content by LCMSMS)",day 1,0.956 µg/mL
same,"Stability in AB White, 8° C. (content by LCMSMS)",day 2,0.954 µg/mL
same,"Stability in AB White, 8° C. (content by LCMSMS)",day 3,0.934 µg/mL
same,"Stability in AB White, 8° C. (content by LCMSMS)",day 5,0.956 µg/mL
same,"Stability in AB White, 8° C. (content by LCMSMS)",day 8,0.949 µg/mL
same,"Stability in AB White, 8° C. (content by LCMSMS)",day 9,0.937 µg/mL
same,"Stability in AB White, 8° C. (content by LCMSMS)",day 10,0.960 µg/mL
same,"Stability in AB White, 8° C. (content by LCMSMS)",day 11,0.929 µg/mL
same,"Stability in AB White, 8° C. (content by LCMSMS)",day 12,0.942 µg/mL
same,"Stability in AB White, 8° C. (content by LCMSMS)",day 15,0.944 µg/mL
same,"Stability in AB White, 8° C. (content by LCMSMS)",day 16,0.932 µg/mL
same,"Stability in AB White, 8° C. (content by LCMSMS)",day 17,0.951 µg/mL
same,"Stability in AB White, 8° C. (content by LCMSMS)",day 18,0.950 µg/mL
same,"Stability in AB White, 8° C. (content by LCMSMS)",day 19,0.959 µg/mL
same,"Stability in AB White, 8° C. (content by LCMSMS)",day 22,0.960 µg/mL
same,"Stability in AB White, 8° C. (content by LCMSMS)",day 23,0.931 µg/mL
same,"Stability in AB White, 8° C. (content by LCMSMS)",day 24,0.926 µg/mL
same,"Stability in AB White, 8° C. (content by LCMSMS)",day 25,0.957 µg/mL
same,"Stability in AB White, 8° C. (content by LCMSMS)",day 26,0.956 µg/mL
same,"Stability in AB White, 8° C. (content by LCMSMS)",day 29,0.939 µg/mL
same,"Stability in AB White, 8° C. (content by LCMSMS)",day 30,0.955 µg/mL
same,"Stability in AB White, 8° C. (content by LCMSMS)",day 60,0.914 µg/mL
same,"Stability in AB White, 8° C. (content by LCMSMS)",day 90,0.948 µg/mL
same,"Stability in AB White, 8° C. (content by LCMSMS)",day 120,0.932 µg/mL
same,"Stability in AB White, 8° C. (content by LCMSMS)",day 150,0.952 µg/mL
same,"Stability in AB White, 8° C. (content by LCMSMS)",day 180,0.941 µg/mL
same,"Stability in AB White, 8° C. (content by LCMSMS)",day 210,0.923 µg/mL
same,"Stability in AB White, 8° C. (content by LCMSMS)",day 240,0.932 µg/mL
same,"Stability in AB White, 8° C. (content by LCMSMS)",day 270,0.933 µg/mL
same,"Stability in AB White, 8° C. (content by LCMSMS)",day 300,0.939 µg/mL
same,"Stability in AB White, 8° C. (content by LCMSMS)",day 330,0.909 µg/mL
same,"Stability in AB White, 8° C. (content by LCMSMS)",day 360,0.913 µg/mL
same,"Stability in AB White, 8° C. (content by LCMSMS)",day 390,0.923 µg/mL
same,"Stability in AB White, 8° C. (content by LCMSMS)",day 420,0.916 µg/mL
same,"Stability in AB White, 8° C. (content by LCMSMS)",day 450,0.923 µg/mL
same,"Stability in AB White, 8° C. (content by LCMSMS)",day 480,0.905 µg/mL
same,"Stability in AB White, 8° C. (content by LCMSMS)",day 510,0.873 µg/mL
same,"Stability in AB White, 8° C. (content by LCMSMS)",day 540,0.877 µg/mL
same,"Stability in AB White, 8° C. (content by LCMSMS)",day 570,0.872 µg/mL
same,"Stability in AB White, 21-25° C. (content by LCMSMS)",day 0,0.950 µg/mL
same,"Stability in AB White, 21-25° C. (content by LCMSMS)",day 1,0.960 µg/mL
same,"Stability in AB White, 21-25° C. (content by LCMSMS)",day 2,0.938 µg/mL
same,"Stability in AB White, 21-25° C. (content by LCMSMS)",day 3,0.920 µg/mL
same,"Stability in AB White, 21-25° C. (content by LCMSMS)",day 5,0.958 µg/mL
same,"Stability in AB White, 21-25° C. (content by LCMSMS)",day 8,0.937 µg/mL
same,"Stability in AB White, 21-25° C. (content by LCMSMS)",day 9,0.926 µg/mL
same,"Stability in AB White, 21-25° C. (content by LCMSMS)",day 10,0.935 µg/mL
same,"Stability in AB White, 21-25° C. (content by LCMSMS)",day 11,0.949 µg/mL
same,"Stability in AB White, 21-25° C. (content by LCMSMS)",day 12,0.935 µg/mL
same,"Stability in AB White, 21-25° C. (content by LCMSMS)",day 15,0.948 µg/mL
same,"Stability in AB White, 21-25° C. (content by LCMSMS)",day 16,0.921 µg/mL
same,"Stability in AB White, 21-25° C. (content by LCMSMS)",day 17,0.919 µg/mL
same,"Stability in AB White, 21-25° C. (content by LCMSMS)",day 18,0.928 µg/mL
same,"Stability in AB White, 21-25° C. (content by LCMSMS)",day 19,0.917 µg/mL
same,"Stability in AB White, 21-25° C. (content by LCMSMS)",day 22,0.947 µg/mL
same,"Stability in AB White, 21-25° C. (content by LCMSMS)",day 23,0.924 µg/mL
same,"Stability in AB White, 21-25° C. (content by LCMSMS)",day 24,0.927 µg/mL
same,"Stability in AB White, 21-25° C. (content by LCMSMS)",day 25,0.948 µg/mL
same,"Stability in AB White, 21-25° C. (content by LCMSMS)",day 26,0.921 µg/mL
same,"Stability in AB White, 21-25° C. (content by LCMSMS)",day 29,0.922 µg/mL
same,"Stability in AB White, 21-25° C. (content by LCMSMS)",day 30,0.934 µg/mL
same,"Stability in AB White, 21-25° C. (content by LCMSMS)",day 60,0.896 µg/mL
same,"Stability in AB White, 21-25° C. (content by LCMSMS)",day 90,0.892 µg/mL
same,"Stability in AB White, 21-25° C. (content by LCMSMS)",day 120,0.894 µg/mL
same,"Stability in AB White, 21-25° C. (content by LCMSMS)",day 150,0.934 µg/mL
same,"Stability in AB White, 21-25° C. (content by LCMSMS)",day 180,0.945 µg/mL
same,"Stability in AB White, 21-25° C. (content by LCMSMS)",day 210,0.913 µg/mL
same,"Stability in AB White, 21-25° C. (content by LCMSMS)",day 240,0.892 µg/mL
same,"Stability in AB White, 21-25° C. (content by LCMSMS)",day 270,0.905 µg/mL
same,"Stability in AB White, 21-25° C. (content by LCMSMS)",day 300,0.888 µg/mL
same,"Stability in AB White, 21-25° C. (content by LCMSMS)",day 330,0.894 µg/mL
same,"Stability in AB White, 21-25° C. (content by LCMSMS)",day 360,0.925 µg/mL
same,"Stability in AB White, 21-25° C. (content by LCMSMS)",day 390,0.907 µg/mL
same,"Stability in AB White, 21-25° C. (content by LCMSMS)",day 420,0.909 µg/mL
same,"Stability in AB White, 21-25° C. (content by LCMSMS)",day 450,0.921 µg/mL
same,"Stability in AB White, 21-25° C. (content by LCMSMS)",day 480,0.873 µg/mL
same,"Stability in AB White, 21-25° C. (content by LCMSMS)",day 510,0.903 µg/mL
same,"Stability in AB White, 21-25° C. (content by LCMSMS)",day 540,0.877 µg/mL
same,"Stability in AB White, 21-25° C. (content by LCMSMS)",day 570,0.877 µg/mL
